Measurements published in ChEMBL document CHEMBL1201862, “PubChem BioAssay data set” (2004).
The source made the active and inactive calls.

What was measured:
cells = assay type: functional
Paired box protein Pax-8 = Paired box protein Pax-8 (Homo sapiens, UniProt Q06710); test: PAX8 transcriptional activity inhibition in RMG-I – RMG-I cells, luciferase, cherry-pick, dose response (AID 687027); assay type: functional, cell-based;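 note: luciferase reporter driven by Pax8 target thyroperoxidase promoter measured by SteadyGlo luminescence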
Sequence of Paired box protein Pax-8 (Q06710 whole entry): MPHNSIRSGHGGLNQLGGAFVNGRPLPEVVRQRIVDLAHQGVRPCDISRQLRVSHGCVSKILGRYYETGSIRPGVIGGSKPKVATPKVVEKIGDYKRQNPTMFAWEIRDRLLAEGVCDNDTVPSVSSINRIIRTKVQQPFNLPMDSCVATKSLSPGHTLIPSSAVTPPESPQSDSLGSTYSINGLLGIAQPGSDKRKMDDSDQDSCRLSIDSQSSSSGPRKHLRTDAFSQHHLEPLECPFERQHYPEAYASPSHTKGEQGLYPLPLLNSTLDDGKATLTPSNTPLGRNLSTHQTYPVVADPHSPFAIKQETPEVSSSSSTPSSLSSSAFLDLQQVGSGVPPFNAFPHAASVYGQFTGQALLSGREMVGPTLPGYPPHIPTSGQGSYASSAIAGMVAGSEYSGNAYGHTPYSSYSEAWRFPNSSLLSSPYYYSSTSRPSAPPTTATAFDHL

INS1 = test: INS-1E survival protection against cytokine death – cell-based, luminescence, retest, dose response (AID 449756); assay type: functional; details: Rattus norvegicus;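 note: cell death triggered by IL-1 beta plus TNF-alpha plus IFN-gamma mixture; protective hits raise ATP signal compared with cytokine alone wells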
[1] = alpha-synuclein stem-loop luciferase translation blockers – H4 neuroglioma cells, luminescence, confirmation (AID 1988); assay type: functional, cell-based
[2] = Vero E6 cell cytotoxicity, dose response, cytotoxicity control for non-replicating M. tuberculosis project, secondary assay (AID 492998); assay type: functional, VeroE6; details: Vero C1008
[3] = target: T1, DNA repair protein RAD52 homolog (Homo sapiens, UniProt P43351); assay type: functional, biochemical
T1 sequence (P43351 whole entry): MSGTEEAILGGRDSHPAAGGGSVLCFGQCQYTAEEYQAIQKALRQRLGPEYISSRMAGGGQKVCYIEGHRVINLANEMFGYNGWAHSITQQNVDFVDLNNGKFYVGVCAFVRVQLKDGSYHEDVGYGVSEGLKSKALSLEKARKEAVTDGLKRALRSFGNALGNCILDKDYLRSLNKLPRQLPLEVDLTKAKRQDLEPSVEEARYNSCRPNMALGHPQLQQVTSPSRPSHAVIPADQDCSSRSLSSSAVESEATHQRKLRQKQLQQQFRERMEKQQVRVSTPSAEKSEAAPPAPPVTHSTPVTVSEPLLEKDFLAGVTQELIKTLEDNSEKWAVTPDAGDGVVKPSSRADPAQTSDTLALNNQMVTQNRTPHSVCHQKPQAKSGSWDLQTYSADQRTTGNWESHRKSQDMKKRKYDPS

[4] = HepG2 cell cytotoxicity, dose response, cytotoxicity control for non-replicating M. tuberculosis project (AID 489018); assay type: functional; details: Mycobacterium tuberculosis
[5] = NIH-3T3 fibroblast cytotoxicity, dose response, cytotoxicity control, cell-based, fluorescence, Alamar Blue, secondary assay (AID 2327); assay type: functional;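 note: NIH-3T3 mouse fibroblasts cultured with fluconazole at 8 µg/mL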
[6] = Luminescence Cell-Based Dose Response HTS to Identify Inhibitors of 5'UTR Stem-Loop Driven Prion Protein mRNA Translation in H4 Neuroglioblastoma Cells. [Related pubchem assays: 1827 (Project Summary), 1813 (Primary HTS)]; assay type: functional
[7] = microbe, parasite or virus in culture; assay type: functional; details: Mycobacterium tuberculosis
[8] = luciferase reporter signal suppression in cells – H4 neuroglioma cells, luminescence, dose response (AID 1990); assay type: functional, cell-based
[9] = THP-1 cell cytotoxicity, dose response, cytotoxicity control for non-replicating M. tuberculosis project (AID 489025); assay type: functional
[10] = fluconazole-exposed Candida albicans growth modulators – fluorescence, retest, confirmation (AID 2467); assay type: functional, cell-based
[11] = system: Streptococcus sp. 'group A'; test: Streptococcus pyogenes SK(-)GAS viability under kanamycin – luminescence, BacTiterGlo, confirmation, counter-screen for streptokinase expression inhibitor project, dose response (AID 1900); assay type: functional, organism-based
Cannabinoid receptor 1 [12] = target: T2, Cannabinoid receptor 1 (Homo sapiens, UniProt P21554); test: SAR analysis of antagonists of the Cannabinoid Receptor 1 using an Image-Based Assay - Set 4. [Related pubchem assays (depositor defined):AID2013, AID2026]; assay type: functional
T2 sequence (P21554 whole entry): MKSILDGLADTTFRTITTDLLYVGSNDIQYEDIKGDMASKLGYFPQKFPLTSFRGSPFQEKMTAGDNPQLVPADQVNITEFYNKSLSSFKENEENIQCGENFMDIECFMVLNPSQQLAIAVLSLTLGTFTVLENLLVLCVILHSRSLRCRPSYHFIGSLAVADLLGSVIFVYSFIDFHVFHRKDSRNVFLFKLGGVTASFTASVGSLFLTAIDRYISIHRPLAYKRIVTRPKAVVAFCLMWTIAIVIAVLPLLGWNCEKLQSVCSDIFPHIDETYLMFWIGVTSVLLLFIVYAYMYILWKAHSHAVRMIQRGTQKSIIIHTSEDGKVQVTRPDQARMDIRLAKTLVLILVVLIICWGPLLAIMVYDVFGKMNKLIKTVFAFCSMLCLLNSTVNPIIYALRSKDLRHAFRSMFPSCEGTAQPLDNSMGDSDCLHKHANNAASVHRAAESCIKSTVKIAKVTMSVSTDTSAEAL

[13] = target: T3, G-protein coupled receptor 35 (Homo sapiens, UniProt Q9HC97); test: SAR analysis of Agonists of the GPR35 Receptor using an Image-Based Assay - Set 4. [Related pubchem assays (depositor defined):AID2013, AID2026]; assay type: functional
T3 sequence (Q9HC97 whole entry): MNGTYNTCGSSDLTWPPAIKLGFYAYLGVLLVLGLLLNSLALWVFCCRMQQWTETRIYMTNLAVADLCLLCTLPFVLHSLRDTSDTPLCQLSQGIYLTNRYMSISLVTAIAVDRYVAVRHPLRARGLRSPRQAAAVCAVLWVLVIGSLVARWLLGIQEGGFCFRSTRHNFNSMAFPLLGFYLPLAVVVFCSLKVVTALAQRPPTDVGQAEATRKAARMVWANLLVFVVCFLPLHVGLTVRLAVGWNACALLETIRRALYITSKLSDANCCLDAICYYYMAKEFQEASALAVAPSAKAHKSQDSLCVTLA

Streptococcus = test: GAS UMAA2166 growth inhibition – luminescence, BacTiterGlo, counter-screen for streptokinase expression inhibitor project, dose response (AID 1915); assay type: functional, organism-based;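 note: potency for reduction of bacterial viability or growth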
Cannabinoid receptor 2 [14] = target: T4, Cannabinoid receptor 2 (Homo sapiens, UniProt P34972); test: SAR analysis of agonists of the Cannabinoid Receptor 2 using an Image-Based Assay - Set 3. [Related pubchem assays (depositor defined):AID2013, AID2026]; assay type: functional
T4 sequence (P34972 whole entry): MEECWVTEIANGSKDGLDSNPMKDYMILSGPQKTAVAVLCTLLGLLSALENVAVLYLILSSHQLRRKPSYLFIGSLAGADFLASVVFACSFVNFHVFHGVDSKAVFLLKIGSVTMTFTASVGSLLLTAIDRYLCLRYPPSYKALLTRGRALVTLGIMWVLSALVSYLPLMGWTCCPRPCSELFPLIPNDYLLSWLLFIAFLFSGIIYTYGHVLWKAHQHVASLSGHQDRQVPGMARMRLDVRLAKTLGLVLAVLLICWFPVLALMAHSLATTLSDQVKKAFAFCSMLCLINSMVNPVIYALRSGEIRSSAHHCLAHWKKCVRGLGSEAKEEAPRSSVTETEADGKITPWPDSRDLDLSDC

Cannabinoid receptor 2 [15] = target: T4, Cannabinoid receptor 2; test: SAR analysis of antagonists of the Cannabinoid Receptor 2 using an Image-Based Assay - Set 3. [Related pubchem assays (depositor defined):AID2013, AID2026]; assay type: functional
Streptokinase A = target: T5, Streptokinase A (Streptococcus pyogenes serotype M1, UniProt P10520); test: viability-normalized secreted streptokinase activity reduction – plasminogen activation absorbance, OD405, dose response (AID 1914); assay type: functional, Streptococcus pyogenes M1 GAS;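 note: secreted streptokinase activity via plasminogen activation per viability signal from cell pellet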
T5 sequence (P10520 whole entry): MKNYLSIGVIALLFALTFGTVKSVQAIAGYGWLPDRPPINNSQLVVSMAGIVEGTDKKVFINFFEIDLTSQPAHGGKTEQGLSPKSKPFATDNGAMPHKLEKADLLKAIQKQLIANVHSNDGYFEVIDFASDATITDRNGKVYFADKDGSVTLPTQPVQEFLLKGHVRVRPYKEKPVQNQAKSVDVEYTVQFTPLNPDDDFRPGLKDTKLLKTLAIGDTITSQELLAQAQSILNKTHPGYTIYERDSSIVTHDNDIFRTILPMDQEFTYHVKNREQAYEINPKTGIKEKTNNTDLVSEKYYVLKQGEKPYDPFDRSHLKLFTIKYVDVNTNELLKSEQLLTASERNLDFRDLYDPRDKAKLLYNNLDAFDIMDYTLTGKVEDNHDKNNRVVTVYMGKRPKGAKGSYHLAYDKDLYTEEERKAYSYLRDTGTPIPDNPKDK

[16] = target: T6, Probable nicotinate-nucleotide adenylyltransferase (Staphylococcus aureus (strain N315), UniProt P65502); assay type: functional, Staphylococcus aureus subsp. aureus N315; details: read-out: IC50_Mean;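 for IC50 Mean: confirmatory dose-response retesting of NadD inhibitor hits first found in an ultra-high-throughput screen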
T6 sequence (P65502 whole entry): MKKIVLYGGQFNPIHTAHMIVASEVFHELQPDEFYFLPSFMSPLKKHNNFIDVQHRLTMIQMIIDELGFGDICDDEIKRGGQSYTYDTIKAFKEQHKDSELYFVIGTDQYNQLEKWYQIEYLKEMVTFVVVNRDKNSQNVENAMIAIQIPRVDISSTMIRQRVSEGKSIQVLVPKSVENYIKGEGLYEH

[17] = target: G-protein coupled receptor 55 (Homo sapiens, UniProt Q9Y2T6); test: SAR Analysis of Selective Antagonists of GPR55 using an Image-Based Assay - Set 4. [Related pubchem assays (depositor defined):AID2013, AID2026]; assay type: functional;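 note: antagonism of response to 5 µM lysophosphatidylinositol agonist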
Sequence of G-protein coupled receptor 55 (Q9Y2T6 whole entry): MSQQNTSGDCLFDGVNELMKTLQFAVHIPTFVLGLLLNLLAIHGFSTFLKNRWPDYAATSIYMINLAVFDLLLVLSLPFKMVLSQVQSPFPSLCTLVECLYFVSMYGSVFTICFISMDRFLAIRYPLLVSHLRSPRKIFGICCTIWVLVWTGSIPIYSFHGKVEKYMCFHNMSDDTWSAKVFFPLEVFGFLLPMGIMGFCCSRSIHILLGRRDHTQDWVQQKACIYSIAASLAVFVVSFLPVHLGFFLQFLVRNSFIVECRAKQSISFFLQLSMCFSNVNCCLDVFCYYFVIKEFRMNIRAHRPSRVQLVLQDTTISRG

Coagulation factor XII = target: T7, Coagulation factor XII (Homo sapiens, UniProt P00748); assay type: functional;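 note: activated factor XIIa alpha cleaving a fluorogenic AMC peptide substrate; inhibitor potency from loss of enzyme activity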
T7 sequence (P00748 whole entry): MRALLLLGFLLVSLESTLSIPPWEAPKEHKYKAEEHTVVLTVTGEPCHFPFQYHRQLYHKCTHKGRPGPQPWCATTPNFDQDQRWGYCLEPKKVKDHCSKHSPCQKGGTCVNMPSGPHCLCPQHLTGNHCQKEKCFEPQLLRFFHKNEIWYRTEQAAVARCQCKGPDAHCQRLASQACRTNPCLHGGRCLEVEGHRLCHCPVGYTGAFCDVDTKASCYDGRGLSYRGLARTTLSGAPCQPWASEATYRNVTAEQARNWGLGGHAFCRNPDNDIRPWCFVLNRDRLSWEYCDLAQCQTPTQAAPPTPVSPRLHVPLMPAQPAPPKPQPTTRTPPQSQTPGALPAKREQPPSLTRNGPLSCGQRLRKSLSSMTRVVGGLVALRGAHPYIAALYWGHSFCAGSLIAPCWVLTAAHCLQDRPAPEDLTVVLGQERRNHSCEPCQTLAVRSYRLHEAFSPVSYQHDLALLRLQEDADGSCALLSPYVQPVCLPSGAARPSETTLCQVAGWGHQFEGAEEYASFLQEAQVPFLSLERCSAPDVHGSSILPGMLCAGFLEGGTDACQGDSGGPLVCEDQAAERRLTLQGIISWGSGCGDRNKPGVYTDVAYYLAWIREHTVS

Cannabinoid receptor 1 [18] = target: T2, Cannabinoid receptor 1; test: SAR analysis of agonists of the Cannabinoid Receptor 1 using an Image-Based Assay - Set 4. [Related pubchem assays (depositor defined):AID2013, AID2026]; assay type: functional
[19] = target: T6, Probable nicotinate-nucleotide adenylyltransferase; assay type: functional, Staphylococcus aureus subsp. aureus N315
[20] = target: T3, G-protein coupled receptor 35; test: SAR analysis of Antagonists of the GPR35 Receptor using an Image-Based Assay - Set 6. [Related pubchem assays (depositor defined):AID2013, AID2026]; assay type: functional

For `Cc1cc(C)n(-c2nc(NCCN(C)C)c3c4c(sc3n2)CCCC4)n1`, the IC50 (cells) was 13.8 µM (active), the AC50 (Paired box protein Pax-8) was 22.9 µM (active) and the AC50 (INS1) was 8.03 µM (active). The EC50 [1] was 8.07 µM (active), the CC50 [2] was 5.33 µM (active) and the AC50 [3] was 7 µM (active). The CC50 [4] was 9.27 µM (active), the EC50 [5] was 8.65 µM (inconclusive) and the EC50 [6] was 8.38 µM (active). For the same compound, the CC50 [7] was 10.3 µM (active), the EC50 [8] was 6.98 µM (active) and the CC50 [9] was 12.7 µM (active). The EC50 [10] was 11.3 µM (active).
For `Cc1ccc(-c2cc(C(=O)Nc3ccc(S(=O)(=O)Nc4cc(C)on4)cc3)c3ccccc3n2)c(C)c1`, the EC50 [11] was 12.1 µM (active), the IC50 (Cannabinoid receptor 1 [12]) was 9.14 µM (active) and the EC50 [13] was > 32 µM (inactive). The EC50 (Streptococcus) was 25.2 µM (active), the EC50 (Cannabinoid receptor 2 [14]) was > 32 µM (inactive) and the IC50 (Cannabinoid receptor 2 [15]) was > 32 µM (inactive). For the same compound, the EC50 (Streptokinase A) was 9.4 µM (active), the IC50 [16] was 15.4 µM (active) and the IC50 [17] was > 32 µM (inactive). The IC50 (Coagulation factor XII) was > 50 µM (inactive), the EC50 (Cannabinoid receptor 1 [18]) was > 32 µM (inactive) and the IC50 [19] was 4.38 µM (active). For the same compound, the IC50 [20] was > 32 µM (inactive).
For `O=C(COC(=O)CCc1c[nH]c2ccccc12)Nc1ccc([N+](=O)[O-])cc1`, the IC50 (cells) was 9.62 µM (active) and the CC50 [4] was > 20 µM (active).
With `Cc1nc(N2CCN(C(=O)c3ccc4c(c3)OCCO4)CC2)c2c3c(sc2n1)CCCC3` the IC50 (Cannabinoid receptor 1 [12]) was 3.36 µM (active), the EC50 [13] was > 32 µM (inactive) and the EC50 (Cannabinoid receptor 2 [14]) was > 32 µM (inactive). For the same compound, the IC50 (Cannabinoid receptor 2 [15]) was 24.2 µM (inactive), the IC50 [17] was 21.4 µM (inactive) and the EC50 (Cannabinoid receptor 1 [18]) was > 32 µM (inactive). The IC50 [20] was > 32 µM (inactive).
For `COc1cccc(-c2nnc(NC(=O)c3ccc4ncsc4c3)o2)c1`, the IC50 (cells) was 11.7 µM (active), the CC50 [2] was 13 µM (active) and the CC50 [4] was > 20 µM (active). For the same compound, the EC50 [5] was > 150 µM (inconclusive), the CC50 [9] was 23.5 µM (active) and the EC50 [10] was 1.9 µM (active).
For `CCN(CC)S(=O)(=O)c1ccc(NC(=O)c2cc(-c3ccccc3)nc3ccccc23)cc1`, the IC50 (Cannabinoid receptor 1 [12]) was 0.352 µM (active), the EC50 [13] was > 32 µM (inactive) and the EC50 (Cannabinoid receptor 2 [14]) was > 32 µM (inactive). The IC50 (Cannabinoid receptor 2 [15]) was > 10.8 µM (inactive), the IC50 [17] was > 32 µM (inactive) and the EC50 (Cannabinoid receptor 1 [18]) was > 32 µM (inactive). The IC50 [20] was > 32 µM (inactive).
